Read-outs that look alike come from different tables or passages of the source.
What was measured:
oxytocin receptor = target: T1, oxytocin receptor (Homo sapiens, UniProt P30559); test: IP-One IP1 accumulation assay in CHO cell lines expressing oxytocin receptor (agonist activation); assay type: cell-based; conditions: n=3; for Emax: CHO, percentage of the endogenous agonist maximal stimulation, read-out: OT-R Emax
T1 construct: expressed in transfected cells; host or cells: CHO cell lines
T1 sequence (P30559 1-389): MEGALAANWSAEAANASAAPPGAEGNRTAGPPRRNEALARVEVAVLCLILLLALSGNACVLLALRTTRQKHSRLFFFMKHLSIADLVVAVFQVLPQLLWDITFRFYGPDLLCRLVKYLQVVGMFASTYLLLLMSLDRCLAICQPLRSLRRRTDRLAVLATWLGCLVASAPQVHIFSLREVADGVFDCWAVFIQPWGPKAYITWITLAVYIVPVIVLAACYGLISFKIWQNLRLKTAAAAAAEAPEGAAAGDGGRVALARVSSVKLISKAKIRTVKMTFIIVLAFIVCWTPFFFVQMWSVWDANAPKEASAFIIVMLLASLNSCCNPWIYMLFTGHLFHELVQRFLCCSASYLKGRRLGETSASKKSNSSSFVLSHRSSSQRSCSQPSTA
Protocol: The activation constants (EC50 in nM) were measured in CHO cell lines expressing oxytocin receptor by IP-One IP1 accumulation assay. These values are the mean ± SEM of at least three separate experiments performed in triplicate. […] When there is only a weak stimulation, results are expressed as percentages of the endogenous agonist maximal stimulation at [ligand] = 1 µM (n = 2). Results are not significant (ns) when there is <10% response at [ligand] = 1 µM (n = 2).

V1A-R = V1A-R (Homo sapiens, UniProt P37288); test: V1A receptor antagonist assay measured as calcium signal; assay type: cell-based; conditions: n=3; for Ratio V1A/OT: V1A-R IC50 / OT-R EC50; for IC50: antagonist, calcium signal, read-out: V1A-R (Antago) IC50
From the text: Comparison of efficacy as OT receptor agonist (measured as described in example 2), or as VIA receptor antagonist (measured as calcium signal, as follows), has been performed.

[1] = in vivo; cited from earlier work
[2] = CHO cell lines expressing oxytocin receptor, IP1 accumulation, read-out: OT-R EC50
[3] = selectivity table, measured as described in example 2, read-out: OT-R (Ago) EC50

V1A-R, sequence (P37288 whole entry, species assumed): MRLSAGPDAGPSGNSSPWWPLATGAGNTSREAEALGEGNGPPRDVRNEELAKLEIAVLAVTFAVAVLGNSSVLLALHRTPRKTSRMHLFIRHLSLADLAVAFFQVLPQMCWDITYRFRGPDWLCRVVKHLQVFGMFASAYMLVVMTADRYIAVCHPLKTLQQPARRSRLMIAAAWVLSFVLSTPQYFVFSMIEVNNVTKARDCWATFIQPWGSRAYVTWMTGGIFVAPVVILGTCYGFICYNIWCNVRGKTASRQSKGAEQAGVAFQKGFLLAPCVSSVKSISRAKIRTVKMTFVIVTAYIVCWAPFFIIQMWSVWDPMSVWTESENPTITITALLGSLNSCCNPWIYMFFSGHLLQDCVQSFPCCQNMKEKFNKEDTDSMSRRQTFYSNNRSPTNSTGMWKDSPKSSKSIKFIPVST

Molecule | Emax (oxytocin receptor) [%] | EC50 (oxytocin receptor; [2]) [nM] | EC50 (oxytocin receptor; [3]) [nM] | Ratio V1A/OT (V1A-R) | IC50 (V1A-R) [nM] | half-life in blood [1]
Cc1cc(C(=O)N2Cc3cnn(C)c3Nc3ccccc32)ccc1CNC(=O)N1C[C@H](N=[N+]=[N-])C[C@H]1C(=S)N(C)C [Compound 2] | 80 | 39.1 | – | – | – | –
Cc1cc(C(=O)N2Cc3cnn(C)c3Nc3ccccc32)ccc1CNC(=O)N1C[C@@H](n2cc(CO)nn2)C[C@H]1C(=S)N(C)C [Compound 6] | 100 | 0.7 | 1.12 | 117 | 131 | –
Cc1cc(C(=O)N2Cc3cnn(C)c3Nc3ccccc32)ccc1CNC(=O)N1C[C@H](n2cc(CN)nn2)C[C@H]1C(=S)N(C)C [Compound 8] | 120 | 33 | – | – | – | –
Cc1cc(C(=O)N2Cc3cnn(C)c3Nc3ccccc32)ccc1CNC(=O)N1C[C@H](n2cc(COCCOCCO)nn2)C[C@H]1C(=S)N(C)C [Compound 14] | – | 10 | – | – | – | –
CCCc1cn([C@@H]2C[C@@H](C(=S)N(C)C)N(C(=O)NCc3ccc(C(=O)N4Cc5cnn(C)c5Nc5ccccc54)cc3C)C2)nn1 [Compound 19] | – | 31 | – | – | – | –
Cc1cc(C(=O)N2Cc3cnn(C)c3Nc3ccccc32)ccc1CNC(=O)N1CCC[C@H]1C(=S)N(C)C [Reference, reference compound] | 96.7 | 45.1 | 45.1 | 7.7 | 346 | –
oxytocin [OT] | – | – | – | – | – | about 3 minutes

From EP4378525A1, “NON PEPTIDERGIC AGONISTS OF OXYTOCIN RECEPTOR” (Université de Strasbourg, priority 2022, dated 2024)
